Tests used:
P2RY12 [1] = target: T1, P2RY12 (Homo sapiens, UniProt Q9H244); experiment: SPR (Biacore T200, His-captured purified P2RY12, steady-state affinity); antagonism of 2MesADP signalling in CHO-P2RY12 cells; format: binding
P2RY12 [2] = target: T1, P2RY12; experiment: biochemical

T1 sequence (Q9H244 whole entry, one chain of several): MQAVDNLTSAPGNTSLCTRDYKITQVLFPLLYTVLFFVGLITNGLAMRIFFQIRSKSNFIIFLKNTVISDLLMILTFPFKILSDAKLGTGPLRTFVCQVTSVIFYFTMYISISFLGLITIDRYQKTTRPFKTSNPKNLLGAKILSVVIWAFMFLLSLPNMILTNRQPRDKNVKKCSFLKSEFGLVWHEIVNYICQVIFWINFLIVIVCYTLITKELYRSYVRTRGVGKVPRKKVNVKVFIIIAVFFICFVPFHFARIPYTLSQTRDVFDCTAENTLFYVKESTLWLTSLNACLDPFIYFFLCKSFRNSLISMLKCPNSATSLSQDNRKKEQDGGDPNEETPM

CC(C)=CC/C=C(\C)[C@H]1CC[C@]2(C)[C@@H]1[C@H](O)C[C@@H]1[C@@]3(C)CC[C@H](O[C@@H]4O[C@H](CO)[C@@H](O)[C@H](O)[C@H]4O[C@@H]4O[C@H](CO)[C@@H](O)[C@H](O)[C@H]4O)C(C)(C)[C@@H]3CC[C@]12C [Rg5, Ginsenoside Rg5]
Kd (P2RY12 [1]): 0.33 µM

CCCSc1nc(N[C@@H]2C[C@H]2c2ccc(F)c(F)c2)c2nnn([C@@H]3C[C@H](OCCO)[C@@H](O)[C@H]3O)c2n1 [Ticagrelor]
Kd (P2RY12 [2]): 0.102 µM
